Source: ChEMBL document CHEMBL1155519, “Discovery of N-phenyl-4-(thiazol-5-yl)pyrimidin-2-amine aurora kinase inhibitors” (J Med Chem, 2010)
Values after ≈ are worked out from the molar mass of the structure shown. Each block holds one molecule with its values, some of them ahead of it. Active and inactive are the calls of the source. The calls are words filed in the database; no cut-off is given here.

Key:
U2OS [1] = experiment: Inhibition of Aurora kinase in asynchronous human U2OS cells assessed as reduction of histone H3 serine-10 phosphorylation at 150 nM after 7 hrs immunofluorescence microscopy; format: cell-based
[2] = molecular target: Cyclin-dependent kinase 9 (Homo sapiens, UniProt P50750); experiment: Inhibition of CDK9
[3] = molecular target: Cyclin-dependent kinase 2 (Homo sapiens, UniProt P24941)
MIA PaCa-2 = experiment: Cytotoxicity against human MIAPaCa2 cells after 96 hrs by MTT assay; format: functional, cell-based; details: MIA PaCa-2, 96 h
Aurora kinase A = molecular target: T1, Aurora kinase A (Homo sapiens, UniProt O14965); experiment: Inhibition of human recombinant Aurora A after 30 mins
T1 sequence (O14965 whole entry): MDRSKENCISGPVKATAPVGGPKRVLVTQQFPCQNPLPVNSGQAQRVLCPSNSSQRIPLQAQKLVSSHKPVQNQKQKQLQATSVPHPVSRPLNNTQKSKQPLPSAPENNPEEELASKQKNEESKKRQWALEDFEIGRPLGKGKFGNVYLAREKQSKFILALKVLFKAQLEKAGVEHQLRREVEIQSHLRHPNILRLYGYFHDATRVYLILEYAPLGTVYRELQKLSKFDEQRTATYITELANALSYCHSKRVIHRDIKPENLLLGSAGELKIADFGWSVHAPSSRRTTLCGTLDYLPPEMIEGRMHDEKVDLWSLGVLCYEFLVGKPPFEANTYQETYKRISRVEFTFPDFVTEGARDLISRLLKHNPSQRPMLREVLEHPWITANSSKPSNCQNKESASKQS

Aurora kinase B = Aurora kinase B (Homo sapiens, UniProt Q96GD4); experiment: Inhibition of human recombinant Aurora B after 60 mins
MCF7 = experiment: Induction of p53 protein expression in human MCF7 cells at 0.07 to 10 uM after 7 hrs by fluorescent microscopy; format: functional, cell-based
[4] = molecular target: Cyclin-dependent kinase 7 (Homo sapiens, UniProt P50613); experiment: Inhibition of CDK7
[5] = molecular target: Cyclin-dependent kinase 4 (Homo sapiens, UniProt P11802); experiment: Inhibition of CDK4
[6] = Inhibition of Aurora kinase in human A549 cells assessed as concentration required for half-maximal inhibition of histone H3 serine-10 phosphorylation after 7 hrs immunofluorescence microscopy; format: cell-based; details: A549, 7 h
[7] = molecular target: Cyclin-dependent kinase 1 (Homo sapiens, UniProt P06493); experiment: Inhibition of CDK1
A2780 = experiment: Cytotoxicity against human A2780 cells after 96 hrs by MTT assay; format: functional, cell-based; details: A2780, 96 h
U2OS [8] = experiment: Inhibition of Aurora kinase in nocodazole-synchronized human U2OS cells assessed as reduction of histone H3 serine-10 phosphorylation at 0.07 to 10 uM after 2 hrs immunofluorescence microscopy; format: cell-based
HCT-116 = experiment: Cytotoxicity against human HCT116 cells after 96 hrs by MTT assay; format: functional, cell-based; details: HCT-116, 96 h
A549 [9] = experiment: Cell cycle arrest in asynchronous human A549 cells assessed as accumulation of cyclin B-negative diploid cells at G1 phase at 0.5 uM after 24 hrs by FACS analysis; format: functional, cell-based
[10] = Clearance in Wistar rat at 10 mg/kg, po after 24 hrs by LC/MS/MS analysis; format: ADME, organism-based; parameters: dose 10 mg/kg, route oral; details: in vivo
HL-60 = experiment: Cytotoxicity against human HL60 cells after 96 hrs by MTT assay; format: functional, cell-based; details: HL-60, 96 h
[11] = Elimination half life in Wistar rat at 10 mg/kg, po by LC/MS/MS analysis; format: ADME, organism-based; parameters: dose 10 mg/kg, route oral; details: in vivo, read-out: beta t1/2 (converted)
HeLa = experiment: Cytotoxicity against human HeLa cells after 96 hrs by MTT assay; format: functional, cell-based
Liver microsomes = experiment: Intrinsic clearance in rat liver microsomes by LC/MS/MS analysis; format: ADME, Microsome
BXPC-3 = experiment: Cytotoxicity against human BxPC3 cells after 96 hrs by MTT assay; format: functional, cell-based; details: BXPC-3, 96 h
NCI-H460 = experiment: Cytotoxicity against human NCI-H460 cells after 96 hrs by MTT assay; format: functional, cell-based; details: NCI-H460, 96 h
SAOS-2 = experiment: Cytotoxicity against human Saos2 cells after 96 hrs by MTT assay; format: functional, cell-based; details: SAOS-2, 96 h
[12] = Aqueous solubility by turbidimetric analysis; format: physicochemical
[13] = AUC (0 to 24 hrs) in Wistar rat at 10 mg/kg, po after 24 hrs by LC/MS/MS analysis; format: ADME, organism-based; parameters: time < 24 hr, dose 10 mg/kg, route oral; details: plasma
[14] = Apparent permeability across human Caco-2 cell membrane; format: ADME, cell-based
A549 [15] = experiment: Cell cycle arrest in asynchronous human A549 cells assessed as accumulation of cyclin B-negative diploid and tetraploid cells at G1 phase at 2 uM after 24 hrs by FACS analysis; format: functional, cell-based
[16] = Dissociation constant, pKa by pH-metric titration method; format: physicochemical
K562 = experiment: Cytotoxicity against human K562 cells after 96 hrs by MTT assay; format: functional, cell-based; details: K562, 96 h
[17] = Cmax in Wistar rat at 10 mg/kg, po after 24 hrs by LC/MS/MS analysis; format: ADME, organism-based; parameters: dose 10 mg/kg, route oral; details: in vivo
A549 [18] = experiment: Effect on mitotic index in asynchronous human A549 cells assessed as appearance of misaligned chromosomes with shortened spindle fibres at 0.5 uM after 8 hrs […]; format: functional, cell-based
[19] = Cytotoxicity against human MESSA cells after 96 hrs by MTT assay; format: functional, cell-based; details: MES-SA
MV4-11 = experiment: Cytotoxicity against human MV4-11 cells after 96 hrs by MTT assay; format: functional, cell-based; details: MV4-11, 96 h
[20] = Oral bioavailability in Wistar rat at 10 mg/kg after 24 hrs by LC/MS/MS analysis; format: ADME, organism-based; details: in vivo
[21] = Octanol-aqueous buffer partition coefficient, log D at pH 7.4 by shake-flask method; format: physicochemical
A549 [22] = experiment: Cell cycle arrest in asynchronous human A549 cells assessed as accumulation of cyclin B-positive tetraploid cells at G2/M phase at 0.5 to 2 uM after 7 hrs by FACS analysis; format: functional, cell-based
HT-29 = experiment: Cytotoxicity against human HT-29 cells after 96 hrs by MTT assay; format: functional, cell-based; details: HT-29, 96 h
COLO 205 = experiment: Cytotoxicity against human COLO205 cells after 96 hrs by MTT assay; format: functional, cell-based; details: COLO 205, 96 h
HuP-T4 = experiment: Cytotoxicity against human HUPT4 cells after 96 hrs by MTT assay; format: functional, cell-based; details: HuP-T4, 96 h
CCRF-CEM = experiment: Cytotoxicity against human CCRF-CEM cells after 96 hrs by MTT assay; format: functional, cell-based
[23] = Half life in rat liver microsomes by LC/MS/MS analysis; format: ADME, Microsome
[24] = Fraction unbound in rat plasma by equilibrium dialysis; format: ADME, cell-free

Chain of Cyclin-dependent kinase 1 (P06493 whole entry): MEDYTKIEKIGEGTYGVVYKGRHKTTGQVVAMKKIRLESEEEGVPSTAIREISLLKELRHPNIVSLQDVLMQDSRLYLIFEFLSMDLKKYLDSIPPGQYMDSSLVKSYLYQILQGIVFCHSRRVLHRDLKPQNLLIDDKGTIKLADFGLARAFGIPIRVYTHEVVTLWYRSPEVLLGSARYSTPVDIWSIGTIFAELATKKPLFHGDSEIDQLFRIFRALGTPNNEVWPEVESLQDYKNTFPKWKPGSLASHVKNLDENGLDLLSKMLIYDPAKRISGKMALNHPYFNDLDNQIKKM
Chain of Aurora kinase B (Q96GD4 whole entry): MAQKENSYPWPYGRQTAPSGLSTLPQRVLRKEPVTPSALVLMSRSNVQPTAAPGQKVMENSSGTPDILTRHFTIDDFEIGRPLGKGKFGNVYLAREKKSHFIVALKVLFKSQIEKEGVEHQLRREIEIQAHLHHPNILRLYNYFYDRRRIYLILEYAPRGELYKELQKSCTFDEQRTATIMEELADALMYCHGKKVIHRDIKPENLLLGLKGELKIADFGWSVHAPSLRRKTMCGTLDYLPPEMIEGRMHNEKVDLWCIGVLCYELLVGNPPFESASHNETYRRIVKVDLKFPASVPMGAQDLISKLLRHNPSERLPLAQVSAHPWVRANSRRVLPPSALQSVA
Chain of Cyclin-dependent kinase 4 (P11802 whole entry): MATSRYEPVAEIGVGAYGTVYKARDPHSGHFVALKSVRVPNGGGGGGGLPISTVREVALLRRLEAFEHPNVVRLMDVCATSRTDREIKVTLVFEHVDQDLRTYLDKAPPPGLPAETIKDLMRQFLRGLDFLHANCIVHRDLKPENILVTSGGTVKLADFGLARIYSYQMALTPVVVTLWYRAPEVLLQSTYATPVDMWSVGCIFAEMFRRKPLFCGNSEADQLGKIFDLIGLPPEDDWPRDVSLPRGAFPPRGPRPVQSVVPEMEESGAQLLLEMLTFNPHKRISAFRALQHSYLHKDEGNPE
Chain of Cyclin-dependent kinase 9 (P50750 whole entry): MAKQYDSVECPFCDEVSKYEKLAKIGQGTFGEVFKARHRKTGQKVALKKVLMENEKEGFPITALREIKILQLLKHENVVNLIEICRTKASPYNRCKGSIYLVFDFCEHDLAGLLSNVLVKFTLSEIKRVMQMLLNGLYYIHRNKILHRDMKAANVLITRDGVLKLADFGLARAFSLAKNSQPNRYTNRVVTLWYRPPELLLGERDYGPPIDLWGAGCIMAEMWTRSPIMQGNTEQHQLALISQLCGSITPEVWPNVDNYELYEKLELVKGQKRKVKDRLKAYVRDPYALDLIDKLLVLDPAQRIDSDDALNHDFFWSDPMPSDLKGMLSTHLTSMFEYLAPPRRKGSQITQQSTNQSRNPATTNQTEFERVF
Chain of Cyclin-dependent kinase 7 (P50613 whole entry): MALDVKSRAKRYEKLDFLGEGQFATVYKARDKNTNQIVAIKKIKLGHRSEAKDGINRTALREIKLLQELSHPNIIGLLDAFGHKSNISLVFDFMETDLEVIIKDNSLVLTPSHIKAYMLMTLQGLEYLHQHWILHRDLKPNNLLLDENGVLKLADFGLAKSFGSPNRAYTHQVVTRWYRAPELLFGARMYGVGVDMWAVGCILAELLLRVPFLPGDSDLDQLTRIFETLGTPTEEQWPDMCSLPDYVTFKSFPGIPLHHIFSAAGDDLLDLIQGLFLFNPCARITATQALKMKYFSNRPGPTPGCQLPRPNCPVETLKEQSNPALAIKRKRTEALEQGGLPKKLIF

SMILES: Cc1nc(C)c(-c2ccnc(Nc3ccc(N4CCOCC4)cc3)n2)s1
Activity (U2OS [1]): inactive | Ki [2]: > 10000 nM | Ki [3]: 1040 nM | IC50 (MIA PaCa-2): 871 nM | Ki (Aurora kinase A): 4 nM | Ki (Aurora kinase B): 9 nM | Activity (MCF7): inactive | Ki [4]: > 10000 nM | Ki [5]: 2170 nM | IC50 [6]: 860 nM | Ki [7]: > 10000 nM | IC50 (A2780): 332 nM | inhibition (U2OS [8]): Active

Ki [2]: 575 nM | CL/F [10]: 70 mL/min/kg | half-life [11]: 4.4 h | clearance (Liver microsomes): 296 µL/min/mg | Ki (Aurora kinase A): 6.9 nM | solubility kinetic [12]: 20 µM (≈ 6.51 µg/mL) | Ki (Aurora kinase B): 15 nM | AUC(0-t) at 24 h [13]: 6.9 µM·h | Papp [14]: 49.2 ×10⁻⁶ cm/s | Ki [4]: 4010 nM | pKa [16]: 5.5 | IC50 [6]: 2600 nM | Cmax [17]: 900 nM | bioavailability [20]: 7% | Ki [7]: 2520 nM | logD [21]: 1.33 | half-life [23]: 4.7 min | fraction unbound [24]: 0.96
SMILES: Cc1nc(C)c(-c2ccnc(Nc3ccc(N(C)C)cc3)n2)s1
IC50 (HCT-116): 133 nM | Activity (A549 [9]): Active | IC50 (HL-60): 128 nM | IC50 (HeLa): 190 nM | IC50 (MIA PaCa-2): 177 nM | IC50 (BXPC-3): 93 nM | IC50 (NCI-H460): 180 nM | IC50 (SAOS-2): 320 nM | Activity (A549 [15]): Active | IC50 (K562): 40 nM | Activity (A549 [18]): Active | IC50 [19]: 110 nM | IC50 (MV4-11): 110 nM | Activity (A549 [22]): Active | IC50 (HT-29): 128 nM | IC50 (A2780): 157 nM | IC50 (COLO 205): 84 nM | IC50 (HuP-T4): 156 nM | IC50 (CCRF-CEM): 170 nM | inhibition (U2OS [8]): Active

Ki [2]: 348 nM | Ki [3]: 286 nM | Ki (Aurora kinase A): 18 nM | Ki (Aurora kinase B): 33 nM | Ki [4]: 4240 nM | Ki [5]: 840 nM | IC50 [6]: 1760 nM | Ki [7]: 909 nM
SMILES: CNc1ccc(Nc2nccc(-c3sc(C)nc3C)n2)cc1
IC50 (MIA PaCa-2): 235 nM | IC50 (A2780): 147 nM

Ki [2]: 559 nM | Ki [3]: 151 nM | Ki (Aurora kinase A): 14 nM | Ki (Aurora kinase B): 6 nM | Ki [4]: > 10000 nM | Ki [5]: 196 nM | IC50 [6]: 570 nM | Ki [7]: > 10000 nM
SMILES: CCNc1nc(C)c(-c2ccnc(Nc3ccc(N4CCOCC4)cc3)n2)s1
Activity (U2OS [1]): inactive | IC50 (MIA PaCa-2): 173 nM | Activity (MCF7): inactive | IC50 (A2780): 81 nM | inhibition (U2OS [8]): Active

Ki [2]: 1470 nM | Ki [3]: 3970 nM | Ki (Aurora kinase A): 9.2 nM | Ki (Aurora kinase B): 18 nM | Ki [4]: > 10000 nM | Ki [5]: > 10000 nM | IC50 [6]: 1110 nM | Ki [7]: > 10000 nM
SMILES: Cc1nc(C)c(-c2ccnc(Nc3ccc(N4CCN(S(C)(=O)=O)CC4)cc3)n2)s1
IC50 (MIA PaCa-2): 608 nM | IC50 (A2780): 298 nM

Ki [2]: 2610 nM | Ki [3]: 156 nM | Ki (Aurora kinase A): 19 nM | Ki (Aurora kinase B): 9.4 nM | Ki [4]: > 10000 nM | Ki [5]: 943 nM | IC50 [6]: 3700 nM | Ki [7]: 3930 nM
SMILES: CNc1nc(C)c(-c2ccnc(Nc3ccc(N4CCOCC4)cc3)n2)s1
Activity (U2OS [1]): inactive | IC50 (MIA PaCa-2): 273 nM | Activity (MCF7): inactive | IC50 (A2780): 144 nM | inhibition (U2OS [8]): Active

Ki [2]: 264 nM | Ki [3]: 522 nM | Ki (Aurora kinase A): 7.6 nM | Ki (Aurora kinase B): 3.8 nM | Ki [4]: 2150 nM | Ki [5]: 1250 nM | IC50 [6]: 590 nM | Ki [7]: > 10000 nM
SMILES: CC(=O)N1CCN(c2ccc(Nc3nccc(-c4sc(N)nc4C)n3)cc2)CC1
IC50 (MIA PaCa-2): 493 nM | IC50 (A2780): 240 nM
